These results are taken from PubChem BioAssay (NCI).

Test systems include KM12 colon; SK-MEL-2 melanoma; LOX IMVI melanoma; TK-10 renal; SW-620 colon; M14 melanoma; A549 NSCLC; NCI-H226 lung; HT29 colon; HCT-116 colon.
Holding throughout (test): growth of human tumour cells (NCI), 48 h

SMILES strings stand for the structures.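 48-hour exposure; five concentrations; linearly interpolated endpoints. The concentration for full growth arrest is given as TGI.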 Some results are limits rather than exact numbers.

Turning to `CC(C)(C)c1ccc(OCCOc2ccc(C(C)(C)C)cc2N)c(N)c1`, the TGI with KM12 colon, with SK-MEL-2 melanoma, in the test on LOX IMVI melanoma, with TK-10 renal, in the test on SW-620 colon and in the test with M14 melanoma was more than 100 µM in each case. Besides, the TGI in the test with A549 NSCLC, in the test with NCI-H226 lung, with HT29 colon and with HCT-116 colon was more than 100 µM throughout.
As for `Cc1c(/C=N/NC(=O)c2ccccc2O)c(=O)n(-c2ccccc2)n1C`, the TGI in the test on KM12 colon, in the test with SK-MEL-2 melanoma, with LOX IMVI melanoma, in the test with TK-10 renal, in the test on SW-620 colon and with M14 melanoma was more than 100 µM each time. Also, the TGI with A549 NSCLC, with NCI-H226 lung, in the test with HT29 colon and in the test with HCT-116 colon was more than 100 µM throughout.
Take `COC(=O)Cc1cc(O)c2c(c1O)C(=O)c1ccccc1C2=O`: the TGI in the test with KM12 colon was more than 100 µM; in the test on SK-MEL-2 melanoma, more than 100 µM; in the test on LOX IMVI melanoma, more than 100 µM; with TK-10 renal it was more than 79.9 µM; in the test with SW-620 colon, more than 100 µM; in the test on M14 melanoma it was more than 100 µM. Further, the TGI is more than 100 µM in the test on A549 NSCLC, more than 100 µM in the test with NCI-H226 lung, more than 46.4 µM in the test with HT29 colon and more than 100 µM with HCT-116 colon.
Take `COc1ccc2c(c1)C(=O)CC1c3cnccc3C(=O)N21` (stereo not given): the TGI in the test on KM12 colon, with SK-MEL-2 melanoma, in the test on LOX IMVI melanoma, with TK-10 renal, in the test with SW-620 colon and in the test with M14 melanoma was more than 100 µM each time. Moreover, the TGI in the test on A549 NSCLC, with NCI-H226 lung, in the test on HT29 colon and with HCT-116 colon was more than 100 µM each time.
Turning to `CCC/C(Cl)=N\OC(=O)Nc1ccc(F)cc1`, the TGI with KM12 colon was determined as 42.6 µM; in the test with SK-MEL-2 melanoma it was 34.8 µM; in the test with LOX IMVI melanoma, 9.97 µM; in the test with TK-10 renal it was 29.2 µM; in the test on SW-620 colon, 27.2 µM; in the test with M14 melanoma, 29.6 µM. Further, the TGI in the test on A549 NSCLC was more than 100 µM; in the test with NCI-H226 lung, 43.4 µM; with HT29 colon it was more than 69.6 µM; in the test on HCT-116 colon, 31.1 µM.
Take `CN(C)CCNc1ccc2c(=O)n(CCN(C)C)c(=O)n3c4ccc(O)cc4c(=O)c1c23`: the TGI with KM12 colon came to 2.15 µM; in the test with SK-MEL-2 melanoma, 0.602 µM; with LOX IMVI melanoma it was 0.217 µM; in the test with TK-10 renal, 1.21 µM; in the test on SW-620 colon, 0.67 µM; in the test with M14 melanoma, 1.86 µM. Besides, the TGI in the test on A549 NSCLC is 1.47 µM; in the test with NCI-H226 lung, 0.322 µM; in the test on HT29 colon, 0.229 µM; in the test on HCT-116 colon, 0.308 µM.
For the compound `c1ccc(/C(=N/Nc2nc3ccccc3s2)C2CCCCC2)nc1`, the TGI with KM12 colon came out at 29.6 µM; in the test on SK-MEL-2 melanoma, 32.3 µM; in the test on LOX IMVI melanoma, 54.3 µM; with TK-10 renal it was 14.5 µM; with SW-620 colon, 20.1 µM; in the test with M14 melanoma, 27.7 µM. Further, the TGI in the test on A549 NSCLC was 76.1 µM; in the test on NCI-H226 lung it was 27.5 µM; with HT29 colon, 16.1 µM; in the test on HCT-116 colon, 14.8 µM.
For the compound `N#CCCN(CCC#N)c1ccc(/C=C2\N=C(c3ccccc3)N(c3ccc(F)cc3)C2=O)cc1`, the TGI with KM12 colon, in the test on SK-MEL-2 melanoma, in the test on LOX IMVI melanoma, in the test on TK-10 renal, in the test on SW-620 colon and with M14 melanoma was more than 100 µM in each case. In addition, the TGI in the test with A549 NSCLC, in the test on NCI-H226 lung, in the test on HT29 colon and in the test with HCT-116 colon was more than 100 µM throughout.
For `COc1ccc([C@H]2[C@H]3COC(=O)[C@H]3C(C#N)=C3Sc4ccccc4N32)cc1`, the TGI is more than 91.2 µM in the test with KM12 colon; 56.7 µM in the test on SK-MEL-2 melanoma; more than 62.9 µM with LOX IMVI melanoma; more than 100 µM with TK-10 renal; more than 100 µM in the test with SW-620 colon; more than 100 µM in the test with M14 melanoma. For the same compound, the TGI in the test with A549 NSCLC was more than 100 µM; with NCI-H226 lung, more than 100 µM; in the test on HT29 colon it was 37.7 µM; in the test with HCT-116 colon, more than 100 µM.
For `N#Cc1c(-c2ccc(Cl)cc2)c2c(nn3c4ccc5ccccc5c4nnc23)[nH]c1=O`, the TGI in the test with KM12 colon was 13.3 µM; in the test on SK-MEL-2 melanoma, 5.77 µM; in the test on LOX IMVI melanoma, 4.18 µM; in the test with TK-10 renal it was more than 100 µM; in the test on SW-620 colon it was 11.4 µM; with M14 melanoma, 6.14 µM. In addition, the TGI in the test with A549 NSCLC was 20.8 µM; with NCI-H226 lung, more than 52.5 µM; in the test on HT29 colon, more than 33.5 µM; in the test on HCT-116 colon, 7.02 µM.
On to `CC(=O)Nc1ccc2c(C)c3c(nc2n1)[nH]c1ccccc13`, for which the TGI in the test with KM12 colon was 47.6 µM; with SK-MEL-2 melanoma, 55.5 µM; with LOX IMVI melanoma it was 37.9 µM; in the test on TK-10 renal it was more than 100 µM; in the test with SW-620 colon, more than 100 µM; in the test on M14 melanoma it was 82.2 µM. Moreover, the TGI in the test with A549 NSCLC is more than 100 µM; with NCI-H226 lung, 67.9 µM; in the test on HT29 colon it was more than 100 µM; in the test on HCT-116 colon, 58.4 µM.
Take `CC(C)/C(Cl)=N/OC(=O)Nc1ccc(Br)cc1`: the TGI in the test on KM12 colon was 26.6 µM; with SK-MEL-2 melanoma, 31.5 µM; in the test with LOX IMVI melanoma, 2.85 µM; in the test with TK-10 renal, 26.2 µM; in the test on SW-620 colon, 4.6 µM; with M14 melanoma, 8.33 µM. The TGI in the test with A549 NSCLC is 39.5 µM; in the test on NCI-H226 lung it was 30.5 µM; in the test on HT29 colon, 18.5 µM; in the test on HCT-116 colon, 10.4 µM.
For `CN(C)CC(O)c1ccc(Cl)c2ccccc12` (stereo not given), the TGI is more than 100 µM in the test with KM12 colon; 39.7 µM in the test with SK-MEL-2 melanoma; more than 66.6 µM in the test with LOX IMVI melanoma; more than 94 µM in the test with TK-10 renal; more than 100 µM in the test on SW-620 colon; 33 µM with M14 melanoma. Moreover, the TGI in the test on A549 NSCLC was more than 100 µM; in the test on NCI-H226 lung, more than 57 µM; in the test with HT29 colon, more than 100 µM; in the test on HCT-116 colon, more than 100 µM.
For the compound `COc1cc2c(c3c1c(=O)c1ccccc1n3C)C=CC1(CCCC1)O2`, the TGI is 25.3 µM in the test with KM12 colon; 33.6 µM in the test on SK-MEL-2 melanoma; 27.3 µM with LOX IMVI melanoma; 33.7 µM in the test on TK-10 renal; 37.2 µM in the test on SW-620 colon; 29.1 µM in the test on M14 melanoma. Further, the TGI stood at 47.1 µM with A549 NSCLC, 37.1 µM with NCI-H226 lung, 19.7 µM in the test on HT29 colon and 28.6 µM with HCT-116 colon.
